Earlier results as cited in patent US8735434B2, “Compounds as cannabinoid receptor ligands” (priority 2007, dated 2014).

Key:
[1] = tested on: rodent models; details: neuropathic, incisional, chronic and acute inflammatory pain
[2] = tested on: animal models; details: acute thermal pain, persistent pain, inflammatory pain, neuropathic pain
[3] = tested on: microglial; details: in vitro
[4] = tested on: osteoclast
[5] = tested on: mice; details: model for post-menopausal osteoporosis
[6] = tested on: apolipoprotein E knockout mice
[7] = tested on: rat; details: rat formalin model of persistent pain

## COc1ccc2c(c1)c(CCN1CCOCC1)c(C)n2C(=O)c1cccc(Cl)c1Cl [GW405833]
[1]
  efficacy in pain models: efficacious

## CN1CCCCC1Cn1cc(C(=O)c2cc([N+](=O)[O-])ccc2I)c2ccccc21 (stereo not drawn) [AM-1241]
[2]
  analgesic efficacy: robust analgesic efficacy

## CCCC(C)(C)c1ccc2c(c1)OC(C)(C)[C@@H]1CC=C(C)C[C@@H]21 [JWH-133]
[3]
  effect on β-amyloid-induced microglial activation and neurotoxicity: abrogated

## SR144528
[3]; against JWH-133
  block of the JWH-133 effects on microglial activation and neurotoxicity: can be blocked
[4]
  effect on osteoclast activity: inhibit osteoclast activity
[5]
  effect on ovariectomy-induced bone loss: reverse ovariectomy-induced bone loss
[6]; against THC
  inhibition of the THC effects on atherosclerotic lesions: these effects were inhibited

## CCCCCCC(C)(C)c1cc(OC)c([C@@H]2C=C(CO)[C@@H]3C[C@H]2C3(C)C)c(OC)c1 [HU-308]
[7]
  antinociceptive response: elicits an antinociceptive response

## (−)-Δ^9-Tetrahydrocannabinol [THC]
[6]; low doses
  progression of atherosclerotic lesions: slowed the progression of atherosclerotic lesions
